Like-named read-outs stand apart in the source and are kept apart here.
Columns and labels:
[1] = tested on: Alternaria solani; experiment: In vivo preventive test on Alternaria (tomatoes)
Protocol: The plants are then placed in an incubation cabinet at approximately 20° C. and a relative atmospheric humidity of 100%.
(§1) The test is evaluated 3 days after the inoculation.

[2] = tested on: Colletotrichum coccodes; experiment: In vivo preventive test on Colletotrichum (tomatoes); settings: Table B1, 3 days after inoculation
Protocol: as §1

[3] = tested on: Phakopsora pachyrhizi; experiment: In vivo preventive test on Phakopsora (soybeans); settings: Table C2, 7 days after inoculation
[4] = tested on: Pyrenophora teres; experiment: In vitro-Test with Pyrenophora teres; assay type: cell-based
[5] = tested on: Septoria tritici; experiment: In vivo preventive Septoria tritici test (wheat); settings: Zymoseptoria tritici, 504 h, 21 days after inoculation
Protocol: After the spray coating has been dried, the plants are sprayed with a spore suspension of Septoria tritici.
The test is evaluated 21 days after the inoculation.

[6] = LogP by HPLC on reversed phase columns (EEC directive 79/831 Annex V.A8); settings: for LogP [a]: LC-UV, acidic range, 0.1% formic acid in water and acetonitrile
Protocol: Measurement of LogP values was performed according to EEC directive 79/831 Annex V.A8 by HPLC (High Performance Liquid Chromatography) on reversed phase columns with the following methods:
Lambda-max-values were determined using UV-spectra from 200 nm to 400 nm and the peak values of the chromatographic signals.

[7] = Alternaria solani, 72 h, read-out: Efficacy in % found

Compound: CC(C)C1CCC(Cc2ccc(Cl)cc2)C1(O)Cn1cncn1 (stereo not shown) [1.012 ipconazole, ipconazole]
- Efficacy in % found ([1]; Table A1, 2.5 ppm a.i., 3 days after inoculation): 28%
- Efficacy in % found ([1]; Table A1, 5 ppm a.i., 3 days after inoculation): 67%
- Efficacy in % found ([1]; Table A1, 10 ppm a.i., 3 days after inoculation): 88%

Compound: OC(Cc1ccccc1Cl)(Cn1nc[nH]c1=S)C1(Cl)CC1 (stereo not shown) [1.018 prothioconazole, prothioconazole]
- Efficacy in % found ([2]; 2.5 ppm a.i.): 38%
- Efficacy in % found ([2]; 5 ppm a.i.): 59%
- Efficacy in % found ([2]; 10 ppm a.i.): 79%

Compound: CC(C)(C)C(O)(CCc1ccc(Cl)cc1)Cn1cncn1 (stereo not shown) [1.021 tebuconazole, tebuconazole]
- pest or weed control at 2.5 ppm ([1]; Alternaria solani, 72 h, Table A1, 2.5 ppm a.i., 3 days after inoculation, read-out: Efficacy in % found): 5%
- pest or weed control at 5 ppm ([1]; Alternaria solani, 72 h, Table A1, 5 ppm a.i., 3 days after inoculation, read-out: Efficacy in % found): 21%
- pest or weed control at 10 ppm ([1]; Alternaria solani, 72 h, Table A1, 10 ppm a.i., 3 days after inoculation, read-out: Efficacy in % found): 74%
- Efficacy in % found ([2]; 2.5 ppm a.i.): 44%
- Efficacy in % found ([2]; 5 ppm a.i.): 44%
- Efficacy in % found ([2]; 10 ppm a.i.): 64%

Compound: Cn1cc(C(=O)Nc2ccc(F)cc2-c2ccc(Cl)c(Cl)c2)c(C(F)F)n1 [2.002 bixafen, bixafen]
- Efficacy in % found ([3]; 2.5 ppm a.i.): 0%
- Efficacy in % found ([3]; 5 ppm a.i.): 0%
- Efficacy in % found ([3]; 10 ppm a.i.): 15%

Compound: O=C(NCCc1ncc(C(F)(F)F)cc1Cl)c1ccccc1C(F)(F)F [2.005 fluopyram, fluopyram]
- pest or weed control at 5 ppm ([1]; Alternaria solani, 72 h, Table A2, 5 ppm a.i., 3 days after inoculation, read-out: Efficacy in % found): 53%
- pest or weed control at 10 ppm ([1]; Alternaria solani, 72 h, Table A2, 10 ppm a.i., 3 days after inoculation, read-out: Efficacy in % found): 61%
- pest or weed control at 20 ppm ([1]; Alternaria solani, 72 h, Table A2, 20 ppm a.i., 3 days after inoculation, read-out: Efficacy in % found): 84%

Compound: Cc1nn(C)c(F)c1C(=O)Nc1ccccc1C(C)CC(C)C (stereo not shown) [2.017 penflufen, penflufen]
- Efficacy in % found ([3]; 5 ppm a.i.): 8%
- Efficacy in % found ([3]; 10 ppm a.i.): 43%
- Efficacy in % found ([3]; 20 ppm a.i.): 83%
- Efficacy in % found ([1]; Table A2, 5 ppm a.i., 3 days after inoculation): 11%
- Efficacy in % found ([1]; Table A2, 10 ppm a.i., 3 days after inoculation): 26%
- Efficacy in % found ([1]; Table A2, 20 ppm a.i., 3 days after inoculation): 47%

Compound: CON=C(C(=O)OC)c1ccccc1CON=C(C)c1cccc(C(F)(F)F)c1 [3.020 trifloxystrobin, trifloxystrobin]
- pest or weed control at 1 ppm ([1]; Alternaria solani, 72 h, Table A2, 1 ppm a.i., 3 days after inoculation, read-out: Efficacy in % found): 24%
- pest or weed control at 2 ppm ([1]; Alternaria solani, 72 h, Table A2, 2 ppm a.i., 3 days after inoculation, read-out: Efficacy in % found): 42%
- pest or weed control at 4 ppm ([1]; Alternaria solani, 72 h, Table A2, 4 ppm a.i., 3 days after inoculation, read-out: Efficacy in % found): 53%

Compound: N#Cc1c[nH]cc1-c1cccc2c1OC(F)(F)O2 [13.001 fludioxonil, fludioxonil]
- pest or weed control at 5 ppm [1, 7]: 77%
- pest or weed control at 10 ppm [1, 7]: 85%
- pest or weed control at 20 ppm [1, 7]: 95%

Compound: CC1CC(C)(C)c2cccc(NC(=O)c3cn(C)nc3C(F)F)c21 (stereo not shown) [Example 2.027, 3-(difluoromethyl)-1-methyl-N-(1,1,3-trimethyl-2,3-dihydro-1H-inden-4-yl)-1H-pyrazole-4-carboxamide]
- Efficacy in % found ([3]; 1 ppm a.i.): 50%
- Efficacy in % found ([3]; 2 ppm a.i.): 95%
- Efficacy in % found ([3]; 4 ppm a.i.): 100%
- Efficacy % ([4]; 4 ppm): 43%
- Efficacy % ([4]; 20 ppm): 62%
- pest or weed control at 1 ppm [1, 7]: 0%
- pest or weed control at 2 ppm [1, 7]: 3%
- pest or weed control at 4 ppm [1, 7]: 11%
- pest or weed control at 62.5 ppm ([5]; read-out: Efficacy in % found, 62.5 ppm a.i.): 25%
- pest or weed control at 125 ppm ([5]; read-out: Efficacy in % found, 125 ppm a.i.): 63%

Compound: CCC(O)(Cn1cncn1)c1cnc(Oc2ccc(C(F)(F)F)cc2)cc1C(F)(F)F (stereo not shown) [I.76]
- LogP [a] ([6]; Table 1, formula (I)): 3.52^[a]

Compound: CC(O)(Cn1cncn1)c1ccc(Oc2ccc(F)cc2)nc1Oc1ccc(F)cc1 (stereo not shown) [I.77]
- LogP [a] ([6]; Table 1, formula (I)): 3.13^[a]

Compound: CC(O)(Cn1cncn1)c1cnc(Oc2ccc(C(F)(F)F)cc2)cc1Cl (stereo not shown) [I.78]
- LogP [a] ([6]; Table 1, formula (I)): 2.88^[a]

Compound: OC(Cn1cncn1)c1ccc(Oc2ccc(OC(F)(F)F)cc2)nc1C(F)(F)F (stereo not shown) [I.79]
- LogP [a] ([6]; Table 1, formula (I)): 2.89^[a]

Compound: OC(Cn1cncn1)(c1ccc(Oc2ccc(Cl)cc2)nc1C(F)(F)F)C1CC1 (stereo not shown) [I.80]
- LogP [a] ([6]; Table 1, formula (I)): 3.32^[a]

Compound: OC(Cn1cncn1)(c1ccc(Oc2ccc(Br)cc2)nc1C(F)(F)F)C1CC1 (stereo not shown) [I.81, 1-[6-(4-bromophenoxy)-2-(trifluoromethyl)pyridin-3-yl]-1-cyclopropyl-2-(1H-1,2,4-triazol-1-yl)ethanol]
- chromatographic logP ([6]; reversed-phase HPLC column): 3.7

Compound: CC(O)(Cn1cncn1)c1cnc(Oc2ccc(Br)cc2)cc1C(F)F (stereo not shown) [I.82]
- LogP [a] ([6]; Table 1, formula (I)): 2.78^[a]

Compound: OC(Cn1cncn1)(c1ccc(Oc2ccc(Br)cc2)nc1C(F)(F)F)C(F)(F)F (stereo not shown) [I.85]
- LogP [a] ([6]; Table 1, formula (I)): 3.48^[a]

Compound: OC(Cn1cncn1)(c1ccc(Oc2ccc(C(F)(F)F)cc2)nc1C(F)(F)F)C1CC1 (stereo not shown) [I.87]
- LogP [a] ([6]; Table 1, formula (I)): 3.57^[a]

Compound: OC(Cn1cncn1)c1cnc(Oc2ccc(C(F)(F)F)cc2)cc1Cl (stereo not shown) [I.88]
- LogP [a] ([6]; Table 1, formula (I)): 2.64^[a]

Compound: CC(O)(Cn1cncn1)c1ccc(Oc2ccc(Cl)cc2F)nc1C(F)(F)F (stereo not shown) [I.89]
- LogP [a] ([6]; Table 1, formula (I)): 3.15^[a]

Compound: OC(Cn1cncn1)c1ccc(Oc2ccc(Cl)cc2F)nc1C(F)(F)F (stereo not shown) [I.90]
- LogP [a] ([6]; Table 1, formula (I)): 2.88^[a]

Compound: OC(Cn1cncn1)(c1ccc(Oc2ccc(C(F)F)cc2)nc1C(F)(F)F)C1CC1 (stereo not shown) [I.93]
- LogP [a] ([6]; Table 1, formula (I)): 3.13^[a]

Compound: OC(Cn1cncn1)c1cnc(Oc2ccc(Cl)cc2)cc1C(F)F (stereo not shown) [I.94]
- LogP [a] ([6]; Table 1, formula (I)): 2.13^[a]

Compound: FC(F)(F)c1nc(Oc2ccc(S(F)(F)(F)(F)F)cc2)ccc1C1(C2CC2)CO1 (stereo not shown) [IX.09]
- LogP [a] ([6]; Table 5, formula (IX)): 5.22^[a]

Compound: CC(=O)c1cnc(Oc2ccc(S(F)(F)(F)(F)F)cc2)cc1C(F)(F)F [V.03]
- LogP [a] ([6]; Table 2, formula (V)): 4.32^[a]

Compound: CC(=O)c1cnc(Oc2ccc(C(F)F)cc2)cc1C(F)(F)F [V.04]
- LogP [a] ([6]; Table 2, formula (V)): 3.62^[a]

Compound: CC(=O)c1ccc(Oc2ccc(Cl)cc2)nc1C(F)F [V.05]
- LogP [a] ([6]; Table 2, formula (V)): 3.35^[a]

— patent US20200008426A1, “ACTIVE COMPOUND COMBINATIONS” (BAYER AKTIENGESELLSCHAFT, priority 2017, published 2020)
